These results are taken from PMC3351833 (Biochemical Journal, 2011).

The term Kd denotes the concentration at which binding is half-saturated.

Assay [1] deals with CaM. Conditions: read-out: Kd of CDZ as CaM inhibitor; cited from earlier work.
Assay [2] deals with Cx50 gap junctions. Type of assay: cell-based, mouse. The conditions noted are these: 1 μM peptide in both whole-cell patch pipettes; 1 μM ionomycin + 1.8 mM [Ca2+]o; Cx50-N2a cell pairs.

With `Clc1ccc(C(c2ccc(Cl)cc2)n2cc[n+](CC(OCc3ccc(Cl)cc3Cl)c3ccc(Cl)cc3Cl)c2)cc1` (centres unmarked) [CDZ, calmidazolium], the dissociation constant (Kd) in assay [1] was about 1000 nM.

On to FKLYKCISFGGTEITTRSHVLTKKRL [SCx50p], for which the “Share of the Ca2+/CaM-dependent decline in Cx50 Gj prevented” value in assay [2] is recorded as 20%.
